≈ marks a conversion by molar mass, not a printed value.

The record followed here is patent publication US11225503B2, “Crystobactamides” (HELMHOLTZ-ZENTRUM FÜR INFEKTIONSFORSCHUNG GMBH, priority 2013, dated 2022).

The subject of data set [1] is several microorganisms and cell lines. As to the kind of experiment: Biological evaluation, summary statements over the MIC and cytotoxicity tests. It is filed as cell-based.
In another data set the test system is E. coli WT. As to the kind of experiment: Susceptibility of mutant E. coli strains, MIC. The note with it: Escherichia coli. It is filed as cell-based. From the text: (§1) Cystobactamides were screened using a panel of E. coli strains with typical mutations in gyrA and parC genes (Table 11).
High-level quinolone resistance often results from a combination of several target site mutations and altered efflux mechanisms. […] This, in turn, leads to overproduction of MarA and AcrAB and overexpression of the AcrAB efflux pump is associated with the MAR (multiple antibiotic resistance) phenotype.^[5]
(§2) Bacterial wildtype strains used in susceptibility assays were either part of our strain collection or purchased from the German Collection of Microorganisms and Cell Cultures (DSMZ) or from the American Type Culture Collection (ATCC). E. coli strain WT^[6] and E. coli mutants were kindly provided by Prof. Dr. P. Heisig, Pharmaceutical Biology and Microbiology, University of Hamburg.
(§3) MIC values were determined in microdilution assays. Overnight cultures were diluted in the appropriate growth medium to achieve an inoculum of 10^4-10^6 cfu/mL. Yeasts were grown in Myc medium (1% phytone peptone, 1% glucose, 50 mM HEPES, pH 7.0), S. pneumonia and E. faecalis in tryptic soy broth (TSB: 1.7% peptone casein, 0.3% peptone soymeal, 0.25% glucose, 0.5% NaCl, 0.25% K2HPO4; pH 7.3); M. smegmatis in Middlebrook 7H9 medium supplemented with 10% Middlebrook ADC enrichment and 2 ml/l glycerol). All other listed bacteria were grown in Müller-Hinton broth (0.2% beef infusion solids, 1.75% casein hydrolysate, 0.15% starch, pH 7.4). Cystobactamides and reference drugs were added directly to the cultures in sterile 96-well plates as duplicates and serial dilutions were prepared. Microorganisms were grown on a microplate shaker (750 rpm, 30-37° C., 18-48 h), except S. pneumonia, which was grown at non-shaking conditions (37° C., 5% CO2, 18 h). Growth inhibition was assessed by visual inspection and the MIC was defined as the lowest concentration of compound that inhibited visible growth.

In data set [2] the test system is E. coli strain WT-4 M2.1 (parC mutation). The data set can be described thus: Susceptibility of mutant E. coli strains, MIC. It is filed as cell-based. The note with it: Escherichia coli.
Source text: as §1, §2, §3

The test system of data set [3] is Pseudomonas aeruginosa PA14. As to the kind of experiment: Susceptibility testing, MIC microdilution. It is filed as cell-based. Background: Broth dilution looks for growth in wells or tubes with falling amounts of substance.
Data set [4] deals with Micrococcus luteus DSM-1790. The data set can be described thus: Susceptibility testing, MIC microdilution. It is filed as cell-based. The note with it: Micrococcus luteus, DSM1790. A digest of the protocol:
(§4)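 Broth microdilution in duplicate, serial dilutions, inoculum 10^4-10^6 cfu/mL. E. coli in Müller-Hinton broth pH 7.4, E. faecalis in TSB pH 7.3, C. albicans in Myc medium pH 7.0; shaken 750 rpm, 30-37 °C, 18-48 h. MIC is lowest concentration without visible growth.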

The test system of data set [5] is Klebsiella pneumoniae DSM-30104. The data set can be described thus: Susceptibility testing, MIC microdilution. It is filed as cell-based. The note with it: Klebsiella pneumoniae, DSM30104.
The subject of data set [6] is Pseudomonas aeruginosa ATCC27853. As to the kind of experiment: Susceptibility testing, MIC microdilution. It is filed as cell-based.
Data set [7] concerns Escherichia coli DSM-26863 (tolC3). The data set can be described thus: Susceptibility testing, MIC microdilution. It is filed as cell-based. The note with it: Escherichia coli, DSM26863. An outline of the steps:
as §4

Data set [8] deals with Escherichia coli DSM-12242 (NAL^R). As to the kind of experiment: Susceptibility testing, MIC microdilution. In kind it is cell-based. As to conditions: Escherichia coli, DSM12242. An outline of the steps:
as §4

For data set [9], the system named is Acinetobacter baumannii DSM-30008. The data set can be described thus: Susceptibility testing, MIC microdilution. It is filed as cell-based. As to conditions: Acinetobacter baumannii, DSM30008. A digest of the protocol: as §4
Data set [10] has as its system Escherichia coli ATCC25922. The data set can be described thus: Susceptibility testing, MIC microdilution. In kind it is cell-based. A digest of the protocol: as §4
Data set [11] has as its system Escherichia coli DSM-1116. The data set can be described thus: Susceptibility testing, MIC microdilution. The note with it: Escherichia coli, DSM1116. In kind it is cell-based. A digest of the protocol:
as §4

In data set [12] the test system is Escherichia coli ATCC35218. The data set can be described thus: Susceptibility testing, MIC microdilution. It is filed as cell-based. A digest of the protocol:
as §4

In data set [13] the test system is Enterococcus faecalis ATCC29212. The data set can be described thus: Susceptibility testing, MIC microdilution. It is filed as cell-based. A digest of the protocol:
as §4

Data set [14] deals with Enterobacter aerogenes DSM-30053. As to the kind of experiment: Susceptibility testing, MIC microdilution. It is filed as cell-based. As to conditions: Klebsiella aerogenes, DSM30053. An outline of the steps: as §4
A further data set concerns Pichia anomala DSM-6766. As to the kind of experiment: Susceptibility testing, MIC microdilution. As to conditions: Hansenula anomala, DSM6766. It is filed as cell-based. An outline of the steps:
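MIC read visually as the lowest compound concentration preventing visible growth. Overnight cultures diluted to 10^4-10^6 cfu/mL; E. faecalis grown in TSB, yeast in Myc medium with 50 mM HEPES, E. coli in Müller-Hinton broth; plates shaken 750 rpm at 30-37° C. for 18-48 h.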

A further data set has as its system Bacillus subtilis DSM-10. The data set can be described thus: Susceptibility testing, MIC microdilution. In kind it is cell-based. The note with it: Bacillus subtilis, DSM10.
Data set [15] has as its system Streptococcus pneumoniae DSM-20566. The data set can be described thus: Susceptibility testing, MIC microdilution. As to conditions: Streptococcus pneumoniae, DSM20566. In kind it is cell-based.
In data set [16] the test system is Burkholderia cenocepacia DSM-16553. The data set can be described thus: Susceptibility testing, MIC microdilution. It is filed as cell-based. The note with it: Burkholderia cenocepacia, DSM16553.
The subject of data set [17] is Chromobacterium violaceum DSM-30191. As to the kind of experiment: Susceptibility testing, MIC microdilution. In kind it is cell-based. The note with it: Chromobacterium violaceum, DSM30191.
The test system of data set [18] is Staphylococcus aureus ATCC29213. As to the kind of experiment: Susceptibility testing, MIC microdilution. In kind it is cell-based.
Data set [19] has as its system Candida albicans DSM-1665. The data set can be described thus: Susceptibility testing, MIC microdilution. It is filed as cell-based. As to conditions: Candida albicans, DSM1665. A digest of the protocol: as §4
Data set [20] relates to Mycobacterium smegmatis mc^2155 ATCC700084. As to the kind of experiment: Susceptibility testing, MIC microdilution. As to conditions: Mycolicibacterium smegmatis, ATCC700084|MC^2155. It is filed as cell-based.
The nature of another data set: in vitro. In kind it is cell-based, Chinese hamster. The note with it: Chinese hamster. On the procedure:
Human HCT-116 colon carcinoma cells (CCL-247) were obtained from the American Type Culture Collection (ATCC) and Chinese hamster ovary CHO-K1 cells (ACC-110) were obtained from the German Collection of Microorganisms and Cell Cultures (DSMZ). Both cell lines were cultured under the conditions recommended by the respective depositor. Primary HUVEC (human umbilical vein endothelial cells; single donor) were purchased from PromoCell (Heidelberg, Germany) and cultured in Endothelial Cell Growth Medium (PromoCell) containing the following supplements: 2% FCS, 0.4% ECGS, 0.1 ng/ml EGF, 1 ng/ml bFGF, 90 μg/ml heparin, 1 μg/ml hydrocortisone.
Cells were seeded at 6×10^3 cells per well of 96-well plates (Corning CellBind®) in complete medium (180 μl) and directly treated with cystobactamides dissolved in methanol in a serial dilution. Compound were tested in duplicate for 5 d, as well as the internal solvent control. After 5 d incubation, 5 mg/ml MTT in PBS (20 μL) was added per well and it was further incubated for 2 h at 37° C.[7] The medium was then discarded and cells were washed with PBS (100 μl) before adding 2-propanol/10N HCl (250:1, v/v; 100 μl) in order to dissolve formazan granules. The absorbance at 570 nm was measured using a microplate reader (EL808, Bio-Tek Instruments Inc.).

`CO[C@H](C(=O)Nc1ccc(C(=O)Nc2ccc(C(=O)Nc3ccc(C(=O)O)cc3OC(C)C)c(O)c2OC(C)C)cc1)[C@H](NC(=O)c1ccc(NC(=O)c2ccc([N+](=O)[O-])cc2)cc1)C(=O)O` [cystobactamide A, Cystobactamide A]: the “inhibition of pathogenic Gram-negative strains A. baumannii and P. aeruginosa (MIC range)” value in data set [1] (A. baumannii and P. aeruginosa) was “low μg/ml range”. The “average potency on Gram-positive bacteria compared with ciprofloxacin” value in data set [1] (E. faecalis, S. aureus, S. pneumonia, average MIC) is on record as “exceeded that of ciprofloxacin”. For the same compound, the MIC is 0.5 µg/mL with E. coli WT; 0.5 µg/mL (≈ 0.543 µM) in data set [2]; more than 59 µg/mL in data set [3]; 0.06 µg/mL (≈ 0.0652 µM) in data set [4]; more than 59 µg/mL in [5]; more than 59 µg/mL in data set [6]. The MIC in data set [7] is 0.5 µg/mL (≈ 0.543 µM); in data set [8] it was 0.9 µg/mL (≈ 0.977 µM); in [9], 7.4 µg/mL (≈ 8.04 µM); in data set [10], 0.5 µg/mL (≈ 0.543 µM); in [11] it was 0.9 µg/mL (≈ 0.977 µM); in [12], 0.9 µg/mL (≈ 0.977 µM). The minimal inhibitory concentration (MIC) was 0.06 µg/mL (≈ 0.0652 µM) in data set [13]; more than 59 µg/mL in [14]; more than 59 µg/mL in the data set with Pichia anomala DSM-6766; 0.12 µg/mL (≈ 0.13 µM) in the data set with Bacillus subtilis DSM-10; 0.23 µg/mL (≈ 0.25 µM) in data set [15]; more than 59 µg/mL in data set [16]. The minimum inhibitory concentration (MIC) in [17] is more than 59 µg/mL; in [18], 0.12 µg/mL (≈ 0.13 µM); in data set [19], more than 59 µg/mL; in data set [20], more than 59 µg/mL.

In the case of `CC(C)Oc1cc(C(=O)O)ccc1NC(=O)c1ccc(NC(=O)c2ccc(N)cc2)c(OC(C)C)c1O` [cystobactamide C, Cystobactamide C], the minimal inhibitory concentration (MIC) worked out at 8.1 µg/mL with E. coli WT; 8.1 µg/mL (≈ 16 µM) in data set [2]; 65 µg/mL (≈ 128 µM) in [3]; 4.1 µg/mL (≈ 8.08 µM) in data set [4]; 65 µg/mL (≈ 128 µM) in data set [5]; 65 µg/mL (≈ 128 µM) in data set [6]. Besides, the MIC in [7] turned out to be 4.1 µg/mL (≈ 8.08 µM); in [8], 8.1 µg/mL (≈ 16 µM); in [9], 32.5 µg/mL (≈ 64 µM); in data set [10], 8.1 µg/mL (≈ 16 µM); in [11], 16.3 µg/mL (≈ 32.1 µM); in [12] it was 16.3 µg/mL (≈ 32.1 µM). For the same compound, the MIC was 4.1 µg/mL (≈ 8.08 µM) in [13]; more than 33 µg/mL in [14]; more than 65 µg/mL in the data set on Pichia anomala DSM-6766; 2 µg/mL (≈ 3.94 µM) in the data set on Bacillus subtilis DSM-10; 8.1 µg/mL (≈ 16 µM) in [15]; more than 65 µg/mL in data set [16]. The minimum inhibitory concentration (MIC) was 16.3 µg/mL (≈ 32.1 µM) in data set [17], 8.1 µg/mL (≈ 16 µM) in data set [18], more than 65 µg/mL in data set [19] and more than 65 µg/mL in [20]. Further, the 50% growth inhibitory concentration (GI50) at 5 d in “in vitro” is approximately 111 µM.

For orientation: MIC means the least concentration at which growth counts as inhibited. The term GI50 denotes the concentration that inhibits growth by half. A higher GI50 goes with less potent growth inhibition.
